These compounds were tested against T1, hTRPM8 (Homo sapiens, UniProt Q7Z2W7) (assay: Assay on TRPM8 modulators: calcium imaging (Fluo-4, Flexstation) in HEK293 cell line stably expressing hTRPM8). Details: HEK293 cells stably expressing hTRPM8, calcium influx, sigmoidal dose-response fit; read-out: EC50.
T1 construct: expressed in transfected cells
Format: cell-based
Experimental: A HEK293 cell line stably expressing hTRPM8 was generated according to Klein et al., (Chem. Senses 36: 649-658, 2011) and receptor activation was monitored by calcium imaging in a Flexstation. For Ca-imaging assays of TRPM8 channel activation, cells were seeded on day 0 at a density of 12000 cells per well in Dulbecco's modified Eagle medium (DMEM) containing 9% foetal bovine serum in black, clear bottom 96-well plates that had been coated with 0.001% polyethyleneimine (molecular weight=60 000, Acros Organics). On day 2, agonists were evaluated via calcium imaging using Fluo-4. Briefly, growth medium was discarded, and the cells were incubated in the dark for 1 h at 37° C. in 50 μL loading buffer consisting of 2.7 μM Fluo-4 AM (Invitrogen) and […] probenecid (Sigma-Aldrich) in DMEM (without serum). After incubation, the plates were washed five times with 100 μL of assay buffer (in mM: 130 NaCl, 5 KCl, 10 HEPES, 2 CaCl2, and 10 glucose, pH7.4.) and further incubated in the dark at room temperature for 30 min. The cells were then washed five times with 100 μL assay buffer and then calcium influx to serial dilutions of inventive compounds were measured in a Flexstation 3 (Molecular Devices). Receptor activation was initiated following addition of 20 μl of a 10-fold concentrated ligand stock solution, which is also prepared in assay buffer. Fluorescence was continuously monitored for 15 seconds prior to ligand addition and for 105 seconds after ligand addition, for a total of 120 seconds. Maximal receptor activation in relation to solvent control and relative to 31.6 μM menthol is determined. Data from serial dilutions were processed with a KNIME workflow to fit a sigmoidal dose-response curve and to extrapolate EC50 values.

T1 sequence (Q7Z2W7 whole entry): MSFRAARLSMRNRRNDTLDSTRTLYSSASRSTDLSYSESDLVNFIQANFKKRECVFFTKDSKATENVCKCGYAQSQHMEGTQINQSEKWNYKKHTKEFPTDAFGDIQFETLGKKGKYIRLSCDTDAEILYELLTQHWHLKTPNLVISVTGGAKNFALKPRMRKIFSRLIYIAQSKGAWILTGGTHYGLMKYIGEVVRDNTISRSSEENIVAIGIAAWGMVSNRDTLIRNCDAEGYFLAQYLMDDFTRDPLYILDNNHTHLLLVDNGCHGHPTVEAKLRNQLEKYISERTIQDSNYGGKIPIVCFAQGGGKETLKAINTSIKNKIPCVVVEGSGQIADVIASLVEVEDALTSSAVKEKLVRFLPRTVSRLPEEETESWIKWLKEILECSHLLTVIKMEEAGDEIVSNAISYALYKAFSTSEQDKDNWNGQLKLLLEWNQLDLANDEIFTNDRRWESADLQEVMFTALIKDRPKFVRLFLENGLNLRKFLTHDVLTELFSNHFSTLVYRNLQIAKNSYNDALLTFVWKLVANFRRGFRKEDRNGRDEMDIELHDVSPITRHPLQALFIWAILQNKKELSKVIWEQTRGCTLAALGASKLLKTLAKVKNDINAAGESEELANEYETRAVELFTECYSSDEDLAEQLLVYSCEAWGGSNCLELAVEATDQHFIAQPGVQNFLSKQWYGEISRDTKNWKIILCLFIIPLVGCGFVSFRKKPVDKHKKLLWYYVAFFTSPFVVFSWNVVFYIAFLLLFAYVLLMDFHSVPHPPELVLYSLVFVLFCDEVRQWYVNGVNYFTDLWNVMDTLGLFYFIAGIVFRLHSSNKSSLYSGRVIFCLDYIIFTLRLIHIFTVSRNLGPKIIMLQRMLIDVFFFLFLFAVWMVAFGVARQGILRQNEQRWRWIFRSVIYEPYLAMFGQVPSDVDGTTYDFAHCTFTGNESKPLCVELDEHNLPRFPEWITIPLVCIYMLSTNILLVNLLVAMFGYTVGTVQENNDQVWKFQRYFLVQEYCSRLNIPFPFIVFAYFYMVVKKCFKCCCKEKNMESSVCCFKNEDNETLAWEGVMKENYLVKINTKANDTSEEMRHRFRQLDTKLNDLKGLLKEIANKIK

| SMILES | EC50 [nM] |
| --- | --- |
| CCOc1ccccc1[C@@]1(C)C[C@@H]2[C@@H]([C@@H](C)C1)N(C)OC2(C)C (racemic) [Compound 77, rac-(3aR,5R,7S,7aR)-5-(2-ethoxyphenyl)-1,3,3,5,7-pentamethyloctahydrobenzo[c]isoxazole] | 300 to 1000 |
| CC(C)N1OC(C)(C)[C@@H]2C[C@H](c3ccc(C(C)(C)C)cc3)C[C@H](C)[C@H]21 (racemic) [Compound 97, rac-(3aR,5R,7S,7aR)-5-(4-(tert-butyl)phenyl)-1-isopropyl-3,3,7-trimethyloctahydrobenzo[c]isoxazole] | 1000 to 35000 |
| Cc1c(Cl)cccc1[C@@]1(C)C[C@@H]2[C@@H]([C@@H](C)C1)N(C)OC2(C)C (racemic) [Compound 89, rac-(3aR,5R,7S,7aR)-5-(3-chloro-2-methylphenyl)-1,3,3,5,7-pentamethyloctahydrobenzo[c]isoxazole] | 50 to 300 |
| COC(=O)c1ccc(C)c([C@@]2(C)C[C@@H]3[C@@H]([C@@H](C)C2)N(C)OC3(C)C)c1 (racemic) [Compound 137, rac-methyl 4-methyl-3-((3aR,5R,7S,7aR)-1,3,3,5,7-pentamethyloctahydrobenzo[c]isoxazol-5-yl)benzoate] | 50 to 300 |
| CC1CC(C)(c2ccccc2C#N)CC2C1N(C)OC2(C)C (stereo not shown) [Compound 14, 2-(1,3,3,5,7-pentamethyloctahydrobenzo[c]isoxazol-5-yl)benzonitrile] | 50 to 300 |
| Cc1cc(F)ccc1[C@@]1(C)C[C@@H]2[C@@H]([C@@H](C)C1)N(C)OC2(C)C (racemic) [Compound 100, rac-(3aR,5R,7S,7aR)-5-(4-fluoro-2-methylphenyl)-1,3,3,5,7-pentamethyloctahydrobenzo[c]isoxazole] | < 50 |
| COc1cccc([C@@]2(C)C[C@@H]3[C@@H]([C@@H](C)C2)N(C)OC3(C)C)c1 (racemic) [Compound 94, rac-(3aR,5R,7S,7aR)-5-(3-methoxyphenyl)-1,3,3,5,7-pentamethyloctahydrobenzo[c]isoxazole] | 50 to 300 |
| CC[C@@H]1CC[C@@H]2[C@@H](C1)C(C)(C)ON2C(C)C (racemic) [Compound 30, rac-(3aR,5R,7aR)-5-ethyl-1-isopropyl-3,3-dimethyloctahydrobenzo[c]isoxazole] | 1000 to 35000 |
| C[C@H]1C[C@@](C)(c2ccc(F)c(F)c2)C[C@@H]2[C@@H]1N(C)OC2(C)C (racemic) [Compound 84, rac-(3aR,5R,7S,7aR)-5-(3,4-difluorophenyl)-1,3,3,5,7-pentamethyloctahydrobenzo[c]isoxazole] | 50 to 300 |
| C[C@H]1C[C@@](C)(c2ccc3ccccc3c2)C[C@@H]2[C@@H]1N(C)OC2(C)C (racemic) [Compound 45, rac-(3aR,5R,7S,7aR)-1,3,3,5,7-pentamethyl-5-(naphthalen-2-yl)octahydrobenzo[c]isoxazole] | 50 to 300 |
| Cc1ccccc1[C@@]1(C)C[C@@H]2[C@@H]([C@@H](C)C1)N(C(C)C)OC2(C)C (racemic) [Compound 59, rac-(3aR,5R,7S,7aR)-1-isopropyl-3,3,5,7-tetramethyl-5-(o-tolyl)octahydrobenzo[c]isoxazole] | 50 to 300 |
| CC(C)CCC1CC(C)C2C(C1)C(C)(C)OC(=O)N2C (stereo not shown) [Compound 21, 6-isopentyl-1,4,4,8-tetramethyloctahydro-2H-benzo[d][1,3]oxazin-2-one] | 1000 to 35000 |
| COc1ccccc1[C@@]1(C)C[C@@H]2[C@@H]([C@@H](C)C1)N(C(C)C)OC2(C)C (racemic) [Compound 65, rac-(3aR,5R,7S,7aR)-1-isopropyl-5-(2-methoxyphenyl)-3,3,5,7-tetramethyloctahydrobenzo[c]isoxazole] | 50 to 300 |
| CC1CC(C)C2C(C1)C1(CCCC1)ON2C(C)C (stereo not shown) [Compound 13, 1-isopropyl-5,7-dimethylhexahydro-1H-spiro[benzo[c]isoxazole-3,1-cyclopentane]] | 1000 to 35000 |
| CC1CC(C)C2C(C1)C1(CCCC1)ON2C (stereo not shown) [Compound 8, 1,5,7-trimethylhexahydro-1H-spiro[benzo[c]isoxazole-3,1′-cyclopentane]] | 1000 to 35000 |
| CC(C)=CC[C@@]1(C)C[C@@H]2[C@@H]([C@@H](C)C1)N(C(C)C)OC2(C)C (racemic) [Compound 58, rac-(3aR,5R,7S,7aR)-1-isopropyl-3,3,5,7-tetramethyl-5-(3-methylbut-2-en-1-yl)octahydrobenzo[c]isoxazole] | 50 to 300 |
| Cc1ccc([C@@]2(C)C[C@@H]3[C@@H]([C@@H](C)C2)N(C)OC3(C)C)cc1 (racemic) [Compound 47, rac-(3aR,5R,7S,7aR)-1,3,3,5,7-pentamethyl-5-(p-tolyl)octahydrobenzo[c]isoxazole] | 50 to 300 |

| SMILES | EC50 [nM] |
| --- | --- |
| Cc1ccc(F)cc1[C@H]1C[C@@H]2[C@@H]([C@@H](C)C1)N(C)OC2(C)C (racemic) [Compound 108, rac-(3aR,5R,7S,7aR)-5-(5-fluoro-2-methylphenyl)-1,3,3,7-tetramethyloctahydrobenzo[c]isoxazole] | 300 to 1000 |
| C[C@H]1C[C@@](C)(c2ccc(F)cc2)C[C@H]2[C@H]1N(C)OC2(C)C (racemic) [Compound 119, rac-(3aS,5R,7S,7aS)-5-(4-fluorophenyl)-1,3,3,5,7-pentamethyloctahydrobenzo[c]isoxazole] | 300 to 1000 |
| CCC[C@@H]1CC[C@@H]2[C@@H](C1)C(C)(C)ON2C (racemic) [Compound 24, rac-(3aR,5R,7aR)-1,3,3-trimethyl-5-propyloctahydrobenzo[c]isoxazole] | 300 to 1000 |
| CC(C)=CC[C@]1(C)CC[C@@H]2[C@@H](C1)C(C)(C)ON2C (racemic) [Compound 113, rac-(3aR,5S,7aR)-1,3,3,5-tetramethyl-5-(3-methylbut-2-en-1-yl)octahydrobenzo[c]isoxazole] | 300 to 1000 |
| COc1cccc(C2(C)CC(C)C3C(C2)C(C)(C)ON3C)n1 (stereo not shown) [Compound 18, 5-(6-methoxypyridin-2-yl)-1,3,3,5,7-pentamethyloctahydrobenzo[c]isoxazole] | 300 to 1000 |
| COc1cccc([C@@]2(C)C[C@@H]3[C@@H]([C@@H](C)C2)N(C(C)C)OC3(C)C)n1 (racemic) [Compound 68, rac-(3aR,5R,7S,7aR)-1-isopropyl-5-(6-methoxypyridin-2-yl)-3,3,5,7-tetramethyloctahydrobenzo[c]isoxazole] | 300 to 1000 |
| COc1ccc(C#N)cc1[C@H]1C[C@@H]2[C@@H]([C@@H](C)C1)N(C(C)C)OC2(C)C (racemic) [Compound 128, rac-3-((3aR,5R,7S,7aR)-1-isopropyl-3,3,7-trimethyloctahydrobenzo[c]isoxazol-5-yl)-4-methoxybenzonitrile] | < 50 |
| COc1cc(OC)cc([C@@]2(C)C[C@@H]3[C@@H]([C@@H](C)C2)N(C)OC3(C)C)c1 (racemic) [Compound 86, rac-(3aR,5R,7S,7aR)-5-(3,5-dimethoxyphenyl)-1,3,3,5,7-pentamethyloctahydrobenzo[c]isoxazole] | 1000 to 35000 |
| Cc1cc(C)cc([C@@]2(C)C[C@@H]3[C@@H]([C@@H](C)C2)N(C(C)C)OC3(C)C)c1 (racemic) [Compound 88, rac-(3aR,5R,7S,7aR)-5-(3,5-dimethylphenyl)-1-isopropyl-3,3,5,7-tetramethyloctahydrobenzo[c]isoxazole] | 300 to 1000 |
| CC1CC(C)(c2cccnc2)CC2C1N(C)OC2(C)C (stereo not shown) [Compound 3, 1,3,3,5,7-pentamethyl-5-(pyridin-3-yl)octahydrobenzo[c]isoxazole] | 1000 to 35000 |
| CC1CC(C)C2C(C1)C(C)(C)ON2C(C)C (stereo not shown) [Compound 11, 1-isopropyl-3,3,5,7-tetramethyloctahydrobenzo[c]isoxazol-1-ium chloride] | 300 to 1000 |
| CCC1(CC)C[C@@H]2[C@@H]([C@@H](C)C1)N(C)OC2(C)C (racemic) [Compound 118, rac-(3aR,7S,7aR)-5,5-diethyl-1,3,3,7-tetramethyloctahydrobenzo[c]isoxazole] | 1000 to 35000 |
| CCC1CC(CC)C2C(C1)C(C)(C)ON2C (stereo not shown) [Compound 19, 5,7-diethyl-1,3,3-trimethyloctahydrobenzo[c]isoxazole] | 1000 to 35000 |
| CC(C)N1OC(C)(C)[C@@H]2C[C@](C)(c3ccccc3)C[C@H](C)[C@H]21 (racemic) [Compound 60, rac-(3aR,5R,7S,7aR)-1-isopropyl-3,3,5,7-tetramethyl-5-phenyloctahydrobenzo[c]isoxazole] | 50 to 300 |
| Cc1ccc([C@@]2(C)C[C@@H]3[C@@H]([C@@H](C)C2)N(C)OC3(C)C)c(C)c1 (racemic) [Compound 71, rac-(3aR,5R,7S,7aR)-5-(2,4-dimethylphenyl)-1,3,3,5,7-pentamethyloctahydrobenzo[c]isoxazole] | 50 to 300 |
| C[C@H]1C[C@@](C)(c2ccc(C(C)(C)C)cc2)C[C@@H]2[C@@H]1N(C)OC2(C)C (racemic) [Compound 95, rac-(3aR,5R,7S,7aR)-5-(4-(tert-butyl)phenyl)-1,3,3,5,7-pentamethyloctahydrobenzo[c]isoxazole] | 1000 to 35000 |
| Cc1ccc(C#N)cc1[C@@]1(C)C[C@@H](C)[C@H]2[C@H](C1)C(C)(C)ON2C (stereo in doubt) [Compound 139, rel-4-methyl-3-((3aS,5S,7R,7aS)-1,3,3,5,7-pentamethyloctahydrobenzo[c]isoxazol-5-yl)benzonitrile] | 50 to 300 |

Reference: patent publication US20230002334A1, “TRPM8 MODULATORS” (Givaudan SA, priority 2019, published 2023)
